Read-outs that look alike come from different tables or passages of the source.

The values that follow come from patent publication US4229479A, “Fluoracylresorcinols as ingredients in pharmaceutical, cosmetic and pesticidal compositions” (Boehringer Ingelheim GmbH, priority 1976, dated 1980).

The target of series [1] is T1, glucose-6-phosphate-dehydrogenase (Saccharomyces cerevisiae, UniProt P11412).
T1 construct: purchased Boehringer Mannheim
T1 sequence (P11412 1-505): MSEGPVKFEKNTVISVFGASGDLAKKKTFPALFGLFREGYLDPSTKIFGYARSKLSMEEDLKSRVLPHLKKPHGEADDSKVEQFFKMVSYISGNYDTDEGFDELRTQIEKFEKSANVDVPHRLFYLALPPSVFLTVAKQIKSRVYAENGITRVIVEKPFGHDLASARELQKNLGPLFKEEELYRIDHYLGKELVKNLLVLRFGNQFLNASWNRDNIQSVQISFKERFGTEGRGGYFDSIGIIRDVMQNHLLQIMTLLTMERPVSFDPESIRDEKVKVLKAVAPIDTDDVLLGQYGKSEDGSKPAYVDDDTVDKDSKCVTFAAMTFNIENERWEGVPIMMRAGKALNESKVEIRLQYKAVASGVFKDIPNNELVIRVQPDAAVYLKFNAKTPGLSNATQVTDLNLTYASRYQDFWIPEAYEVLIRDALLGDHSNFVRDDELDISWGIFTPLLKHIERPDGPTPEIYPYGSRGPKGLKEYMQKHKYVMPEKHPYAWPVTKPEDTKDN
In words: Inhibition of the glucose-6-phosphate-dehydrogenase. To be noted: 366 nm. The series is classed as biochemical. Here is the method:
Measurement of the inhibition of the glucose-6-phosphate-dehydrogenase.
The equilibrium was observed: [drawing 6]
The rate of formation of NADPH is a measure for the enzyme activity; it may be observed by means of the extinction increase at 340,334 or 366 nm per unit of time.
0.025 ml of glucose-6-phosphate-dehydrogenase (Boehringer Mannheim) were filled up to 10 ml of distilled water (solution I). 100 mgm of nicotinamide-adenine-dinucleotide-phosphate were dissolved in 13 ml of distilled water (solution II). 47.2 mgm of glucose-6-phosphate were dissolved in further 10 ml of distilled water (solution III). Simultaneously a buffer solution (solution IV) was prepared as follows:
0.28 gm of triethanolamine-hydrochloride and 1.461 gm of ethylene diaminotetraacetic acid-disodium salt were dissolved in 1 liter of distilled water and adjusted to a pH of 7.6 with sodium hydroxide solution. The substance under test was dissolved in dimethyl formamide or ethanol (solution V). Tested concentrations: 50; 25; 12.5; 6.25; 3.125; 1.56 and 0.78 μg/ml.
0.1 ml of solution I, 0.1 ml of solution II, 2.67 ml of solution IV and 0.03 ml of solution V were mixed and kept at 25° C. for 5 minutes. Then 0.1 ml of solution III was added, mixed and the alteration of extinction was determined spectrophotometrically at 366 nm for 3 minutes.
0.1 ml of solution I, 0.1 ml of solution II, 2.67 ml of solution IV and 0.03 ml of solution V were mixed and kept at 37° C. for 60 minutes. Then 0.1 ml of solution III was added, mixed and the alteration of extinction was measured spectrophotometrically at 366 nm for 3 minutes.
The inhibitory values were calculated from the average values of three measurements (alteration of extinction per minute) compared with controls, which received the pure solvent as the inhibitory solution. Then the ED50 was calculated according to Reed and Muench from the inhibitory values for the various concentrations.

The nature of series [2]: Compatibility on the skin under occlusion. The series is classed as in vivo. To be noted: cream containing 10% of compound A; over 24 hours under occlusion.
A short description of series [3]: Acute toxicity, LD50 in the mouse. To be noted: in vivo, ip, death within 14 days. The protocol:
The acute toxicity was determined with mice. The LD50, the dose leading to the death of 50% of the animals within 14 days, was calculated.

Series [4] has as its system HeLa-cell culture. In words: Inhibition of cell cultures (HeLa). The series is classed as cell-based. To be noted: Homo sapiens, 72 h, 37° C., 3 days, read-out: Minimal inhibitory concentration. The protocol: Measurement of the inhibition of cell cultures
HeLa-cell culture was treated with trypsin and adjusted to a cell number of 150,000 cells/ml of fresh medium. The substance was always dissolved in the same quantity of dimethyl sulfoxide and then further diluted with growth medium. 0.1 ml of the substance-dilutions were added to each well of microtiter plates and then 0.2 ml of cell suspension were added (4 wells per dilution). Several growth controls containing 0.1 ml of growth medium instead of 0.1 ml of substance dilution were put up. After careful mixing, the cultures were incubated at 37° C. for 3 days in a 5% carbon dioxide atmosphere. The reading was effected in comparison with these controls. The results were given as the percentage of the deficiency and degeneration compared to the growth control. […] The data are referred to μg of substance per ml of total medium.

In series [5] the test system is humans. To be noted: cited from earlier work.
[6] abbreviates: 25° C., 5 minutes before substrate, read-out: G6PDH-inhibition ED50, Immediate Inhibition (converted).
[7] abbreviates: 37° C., 60 minutes before substrate, read-out: G6PDH-inhibition ED50, Inhibition of Incubation (converted).

As to `CCc1c(O)ccc(C(=O)C(F)(F)F)c1O` [C, 3-Ethyl-2,4-dihydroxy-trifluoroacetophenone], the IC50 is 160 µM in series [1] (setting [6]) and 85.4 µM in series [1] (setting [7]).

As usually defined, the LD50 is the dose expected to kill half of the subjects tested. Read a high LD50 as a less toxic substance. As for `O=C(c1ccc(O)cc1O)C(F)(F)F` [Compound A, 2,4-Dihydroxy-trifluoroacetophenone], the “compatibility on the skin” value in series [2] is “tolerated without irritation”. For the same molecule, the IC50 in series [1] (setting [6]) was above 243 µM; in series [1] (setting [7]) it was 160 µM. In addition, the LD50 at 336 h in series [3] is 105 mg/kg.

Consider `CCc1cc(C(=O)C(F)(F)F)c(O)cc1O` [Compound B, 5-Ethyl-2,4-dihydroxy-trifluoroacetophenone], for which the IC50 is 147 µM in series [1] (setting [6]) and 128 µM in series [1] (setting [7]). Besides, the LD50 at 336 h in series [3] came to 88 mg/kg.

For `COc1ccc(C(=O)C(F)(F)F)c(OC)c1` [D, 2,4-Dimethoxy-trifluoroacetophenone], the IC50 in series [1] (setting [6]) and in series [1] (setting [7]) was above 214 µM throughout. In addition, the minimal effective concentration in series [4] amounted to 25 µg/mL.

On to `CCCCCCc1ccc(O)cc1O` [hexylresorcinol], for which the allergies in humans result in series [5] is reported as “in some cases cause allergies in humans”.
